In patent publication US10336808B2, “MHC peptide complexes and uses thereof in infectious diseases” (priority 2007, dated 2019):

Legend:
Assay type in all cases: cell-based, human
[1] = test system: T2 cells loaded with peptide; assay: 51-Cr release assay of expanded T cell clones
Experimental: The ten expanded T cell clones isolated by Flow sorting as shown in example 39 were tested for their specificity by analysis in a standard 51-Cr release assay. […] One of these BclX(L)173-182 specific CD8 T-cell clones [Clone 9] were expanded for further analyses.

[2] = test system: T2 cells pulsed with peptide; assay: 51Cr-release assays with Bcl-X(L)173-182 specific clone 9
Source text: The Bcl-X(L)173-182 specific clone 9 was expanded for additional 2 weeks before the cytotoxic potential was examined further in 51Cr-release assays.

[3] = test system: Bcl-X(L)-specific, CD8 positive T cells in PBL; assay: ELISPOT ex vivo with BclX(L) peptide; conditions: PBL from a breast cancer patient, with vs without peptide, FIG. 15
Experimental: In example 22 the best binding BclX(L) 10-mer peptide for HLA-A*0201 was identified to be […] (SEQ ID NO.: 46196). This peptide has then been tested in ELISPOT to see if it were able to detect the presence Bcl-X(L)-specific, CD8 positive T cells in PBL (Peripheral Blood Lymphocytes) from a breast cancer patient. PBL from a breast cancer patient was analyzed by ELISPOT ex vivo either with or without the Bcl-X(L)173-182 peptide ([…] (SEQ ID NO.: 46196)), […] in doublets. The number of spots was counted using the Immunospot Series 2.0 Analyzer (CTL Analysers).

[4] = CD8 T-cell clones 8, 9, 10, 11 and 12, FIG. 17

| Sequence | lysis of peptide pulsed T2 cells [1, 4] | cell lysis of T2 cells pulsed with different concentrations of peptide ([2]; clone 9, E:T ratio 1:1, FIG. 18) | cell lysis of peptide pulsed T2 cells ([2]; clone 9, three E:T ratios, vs irrelevant peptide, FIG. 18) | ELISPOT detection of Bcl-X(L)-specific CD8 positive T cells (number of spots) [3] | lysis of peptide pulsed T2 cells ([1]; expanded clones 7, 13, 15, 17 and 18) |
| --- | --- | --- | --- | --- | --- |
| GLQHWVPEL [BA4697-105, irrelevant peptide, reference compound] | without killing |  |  |  |  |
| YLNDHLEPWI | effectively lysed | significant even at low concentrations | necessary to get killing of the target cell | clearly shows the presence of BclX(L) specific T-cells | did not show specific lysis |
